Here are results for five molecules from patent US6346518B1, “Itraconazole and saperconazole stereoisomers” (Janssen Pharmaceutica N.V., priority 1995, dated 2002).

Series [1] is described as follows: solubility in artificial gastric juice. The following applies: ambient temperature. It is filed as physicochemical. The protocol:
About 10 mg of either product was added to 100 ml artificial gastric juice (0.2 g NaCL+0.7 ml concentrated HCl diluted to 100 ml) at ambient temperature. The mixture was stirred and a sample was taken from each solution at regular intervals. The amount of dissolved active ingredient was determined following the procedure described in the previous example.

The conditions of series [2]: cited from earlier work.
Series [3] is described as follows: solubility in water in the absence or presence of 2-hydroxypropyl-β-cyclodextrin (saturated solutions, UV spectrometry). It is filed as physicochemical. As to conditions: ambient temperature. How it is done: A 10 ml stock solution comprising 0, 2.5, 5, 7.5, 10, 20, 30 or 40% (weight by volume) 2-hydroxypropyl-β-cyclodextrin (M.S.=0.4) was put in a 20 ml tinted vial. To each vial there was added a quantity of itraconazole or saperconazole sufficient to yield a saturated solution. The vials were sonicated for 10 minutes and all vials were checked to ascertain that an undissolved remnant remained Where all the material had dissolved, another quantity of the material was added The vials were closed and protected from light by wrapping them in aluminum foil. The vials were then shaken in an appropriate apparatus. 24Hours later the vials were checked again to ascertain that an undissolved remnant of the material remained and where necessary a further quantity of the material was added. The vials were shaken for at least 72 hours and then allowed to stand until all undissolved material had precipitated. The vials were opened and the pH of the saturated solutions was measured. An aliquot of the supernatant solution was filtered and the amount of dissolved active ingredient was measured by UV spectrometry (255 nm), if necessary after diluting said aliquot to a concentration suitable for UV spectrometry.

Series [4] has as its system Aspergillus spp. As to conditions: compared with itraconazole; U.S. Pat. No. 4,916,134; cited from earlier work.
The mark [5] stands for this setting: 2-hydroxypropyl-β-cyclodextrin concentration 2.5%.
Where [6] appears, read: 2-hydroxypropyl-β-cyclodextrin concentration 5%.
Where [7] appears, read: 2-hydroxypropyl-β-cyclodextrin concentration 7.5%.
The mark [8] stands for this setting: 2-hydroxypropyl-β-cyclodextrin concentration 10%.
The mark [9] stands for this setting: 2-hydroxypropyl-β-cyclodextrin concentration 20%.
Setting [10] is: 2-hydroxypropyl-β-cyclodextrin concentration 30%.
[11] abbreviates: 2-hydroxypropyl-β-cyclodextrin concentration 40%.

Turning to `CCC(C)n1ncn(-c2ccc(N3CCN(c4ccc(OCC5COC(Cn6cncn6)(c6ccc(Cl)cc6Cl)O5)cc4)CC3)cc2)c1=O` (racemic) [itraconazole, (±)-cis-4-[4-[4-[4-[[2-(2,4-dichlorophenyl)-2-(1H-1,2,4-triazol-1-ylmethyl)-1,3-dioxolan-4-yl]methoxy]phenyl]-1-piperazinylphenyl]-2,4-dihydro-2-(1-methyl-propyl)-3H-1,2,4-triazol-3-one], the “concentration of dissolved active ingredient” value in series [1] (1 h.) was 0.023 mg/100 ml; in series [1] (2 h.) it was 0.079 mg/100 ml; in series [1] (3 h.), 0.15 mg/100 ml; in series [1] (4 h.) it was 0.19 mg/100 ml; in series [1] (6 h.), 0.27 mg/100 ml; in series [1] (26 h.) it was 0.40 mg/100 ml. In addition, the figures for the “concentration of dissolved active ingredient” value in series [1] (46 h.), in series [1] (51 h.) and in series [1] (69 h.) were 0.40 mg/100 ml, 0.41 mg/100 ml and 0.45 mg/100 ml, respectively. In series [2], the solubility in water result is “only very sparingly soluble in water”. Moreover, the concentration in water in series [3] (setting [5]) came out at 0.36 mg/100 ml; in series [3] (setting [6]) it was 1.79 mg/100 ml; in series [3] (setting [7]), 4.74 mg/100 ml; in series [3] (setting [8]) it was 10.28 mg/100 ml; in series [3] (setting [9]) it was 50 mg/100 ml; in series [3] (setting [10]), 95 mg/100 ml. In series [3] (setting [11]), the concentration in water was 174 mg/100 ml.
Turning to `CCC(C)n1ncn(-c2ccc(N3CCN(c4ccc(OCC5COC(Cn6cncn6)(c6ccc(F)cc6F)O5)cc4)CC3)cc2)c1=O` (racemic) [saperconazole, (±)-cis-4-[4-[4-[4-[[2-(2,4-difluorophenyl)-2-(1H-2,4-triazol-1-yl-methyl)-1,3-dioxolan-4-yl]methoxylphenyl]-1-piperazinyl]-phenyl]-2,4-dihydro-2-(1-methylpropyl)-3H-1,2,4-triazol-3-one], the solubility in water result in series [2] is “only very sparingly soluble in water”. Moreover, the “activity against Aspergillus spp.” value in series [4] is “improved activity against Aspergillus spp”.
On to “(+)-[2R-[2α,4α, 4(R)]]-4-[4-[4-[4[[dichlorophenyl)-2-(1H-1,2,4-triazol-1-ylmethyl)-1,3-dioxolan-4-yl]methoxy]phenyl]-1-piperazinyl]phenyl]-2,4-dihydro-2-(1-methylpropyl)-3H-1,2,4-triazol-3-one [Compound 4]”, for which the concentration in water in series [3] (setting [5]) is recorded as 2.43 mg/100 ml; in series [3] (setting [6]), 15.84 mg/100 ml; in series [3] (setting [7]) it was 41.70 mg/100 ml; in series [3] (setting [8]) it was 83.72 mg/100 ml; in series [3] (setting [9]) it was 481 mg/100 ml; in series [3] (setting [10]), 1166 mg/100 ml. The concentration in water in series [3] (setting [11]) turned out to be 2017 mg/100 ml.
For “(+)-[2S-[2α, 4α, 4(R)]1-4-[4-[4-[4-[[2-(2,4-dichlor triazol-1-ylmethyl)-1,3-dioxolan-4-yl]methoxy]phenyl]-1-piperazinyl]phenyl]-2,4-dihydro-2-(1-methylpropyl)-3H-1,2,4-triazol-3-one [Compound 3]”, the “concentration of dissolved active ingredient” value is 0.005 mg/100 ml in series [1] (5 min.); 0.037 mg/100 ml in series [1] (15 min.); 0.15 mg/100 ml in series [1] (30 min.); 0.32 mg/100 ml in series [1] (1 h.); 0.69 mg/100 ml in series [1] (2 h.); 1.09 mg/100 ml in series [1] (3 h.). Also, the “concentration of dissolved active ingredient” value in series [1] (4 h.) is reported as 1.41 mg/100 ml; in series [1] (6 h.), 1.94 mg/100 ml; in series [1] (26 h.) it was 3.93 mg/100 ml; in series [1] (46 h.), 5.08 mg/100 ml; in series [1] (51 h.), 5.39 mg/100 ml; in series [1] (69 h.), 6.36 mg/100 ml.
On to “(−)-[2S-[2α, 4α, 4(S)[[-4-[4-[4-[4-[[2-(2,4-dichlorophenyl-2(1H-1,2,4-triazol-1-ylmethyl)-1,3-dioxolan-4-yl]methoxy]phenyl]-1-piperazinyl]phenyl ]-2,4-dihydro-2-(1-methylpropyl)-3H-1,2,4-triazol-3-one [Compound 2]”, for which the concentration in water in series [3] (setting [5]) is listed as 3.58 mg/100 ml; in series [3] (setting [6]), 16.36 mg/100 ml; in series [3] (setting [7]) it was 41.39 mg/100 ml; in series [3] (setting [8]), 78.16 mg/100 ml; in series [3] (setting [9]), 332 mg/100 ml; in series [3] (setting [10]), 846 mg/100 ml. Further, the concentration in water in series [3] (setting [11]) turned out to be 1720 mg/100 ml.
